Tests used:
h5-HT1A receptor [1] = biological target: T1, h5-HT1A receptor (Homo sapiens, UniProt P08908); test: [3H]8-OH-DPAT binding, HEK-h5-HT1A; details: read-out: Inhibition of radioligand binding Ki ± sem, h5-HT1A [3H]8OH-DPAT
T1 sequence (P08908 1-422): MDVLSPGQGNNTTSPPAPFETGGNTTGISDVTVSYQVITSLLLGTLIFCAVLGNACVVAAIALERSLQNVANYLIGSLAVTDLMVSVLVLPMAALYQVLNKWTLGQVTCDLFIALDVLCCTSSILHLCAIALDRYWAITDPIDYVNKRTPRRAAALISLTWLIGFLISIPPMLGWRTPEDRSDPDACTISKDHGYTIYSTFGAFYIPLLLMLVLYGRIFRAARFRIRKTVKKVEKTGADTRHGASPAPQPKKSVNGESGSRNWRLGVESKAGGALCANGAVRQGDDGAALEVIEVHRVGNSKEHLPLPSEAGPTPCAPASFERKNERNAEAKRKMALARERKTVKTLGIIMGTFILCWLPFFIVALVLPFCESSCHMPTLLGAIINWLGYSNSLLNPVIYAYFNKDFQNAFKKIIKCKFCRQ

hDAT [2] = biological target: T2, hDAT (Homo sapiens, UniProt Q01959); test: Inhibition of [125I]RTI-55 binding, HEK-hDAT membranes; details: read-out: Inhibition of [125I]RTI-55 binding Ki ± sem, hDAT; HEK-hDAT membranes
T2 sequence (Q01959 whole entry): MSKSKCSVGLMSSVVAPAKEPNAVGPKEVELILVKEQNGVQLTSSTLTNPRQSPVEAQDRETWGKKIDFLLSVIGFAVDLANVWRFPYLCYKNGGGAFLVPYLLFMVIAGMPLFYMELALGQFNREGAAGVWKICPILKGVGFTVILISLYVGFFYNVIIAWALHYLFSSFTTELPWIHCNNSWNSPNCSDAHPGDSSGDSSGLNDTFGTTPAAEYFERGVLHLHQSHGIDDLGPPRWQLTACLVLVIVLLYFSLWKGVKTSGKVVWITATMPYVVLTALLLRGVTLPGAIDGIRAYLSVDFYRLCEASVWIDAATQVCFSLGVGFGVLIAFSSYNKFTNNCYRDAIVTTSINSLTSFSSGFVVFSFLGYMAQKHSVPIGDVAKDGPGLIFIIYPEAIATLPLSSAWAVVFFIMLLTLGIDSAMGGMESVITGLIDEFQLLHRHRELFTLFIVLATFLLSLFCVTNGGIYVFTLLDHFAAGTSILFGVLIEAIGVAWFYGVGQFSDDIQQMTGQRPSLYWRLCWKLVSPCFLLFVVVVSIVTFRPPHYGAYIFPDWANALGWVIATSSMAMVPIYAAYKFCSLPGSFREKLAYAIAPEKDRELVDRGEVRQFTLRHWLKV

hNET [3] = biological target: T3, hNET (Homo sapiens, UniProt P23975); test: biochemical; type: binding; details: read-out: Inhibition of [125I]RTI-55 binding Ki ± sem, hNET; HEK-hNET membranes
T3 sequence (P23975 whole entry, the tested form may be a part): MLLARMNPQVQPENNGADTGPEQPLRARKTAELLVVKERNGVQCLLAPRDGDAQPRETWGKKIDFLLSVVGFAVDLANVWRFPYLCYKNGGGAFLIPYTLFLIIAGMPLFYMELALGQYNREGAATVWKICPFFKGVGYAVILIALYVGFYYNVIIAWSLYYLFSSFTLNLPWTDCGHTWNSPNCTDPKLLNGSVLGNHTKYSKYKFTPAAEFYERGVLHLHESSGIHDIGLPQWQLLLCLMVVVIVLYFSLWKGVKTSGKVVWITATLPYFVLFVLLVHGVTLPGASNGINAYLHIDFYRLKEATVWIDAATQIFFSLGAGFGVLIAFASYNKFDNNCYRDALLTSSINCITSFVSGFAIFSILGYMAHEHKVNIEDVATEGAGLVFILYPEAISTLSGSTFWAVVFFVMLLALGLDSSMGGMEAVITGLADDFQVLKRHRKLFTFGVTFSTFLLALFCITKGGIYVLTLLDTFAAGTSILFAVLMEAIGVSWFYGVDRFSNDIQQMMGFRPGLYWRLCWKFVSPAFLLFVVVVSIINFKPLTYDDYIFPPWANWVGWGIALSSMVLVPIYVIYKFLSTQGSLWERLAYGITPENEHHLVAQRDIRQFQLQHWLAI

hSERT [4] = biological target: T4, hSERT (Homo sapiens, UniProt P31645); test: Superfusion release of preloaded [3H]5-HT from HEK-hSERT cells; type: cell-based
T4 sequence (P31645 whole entry, the tested form may be a part): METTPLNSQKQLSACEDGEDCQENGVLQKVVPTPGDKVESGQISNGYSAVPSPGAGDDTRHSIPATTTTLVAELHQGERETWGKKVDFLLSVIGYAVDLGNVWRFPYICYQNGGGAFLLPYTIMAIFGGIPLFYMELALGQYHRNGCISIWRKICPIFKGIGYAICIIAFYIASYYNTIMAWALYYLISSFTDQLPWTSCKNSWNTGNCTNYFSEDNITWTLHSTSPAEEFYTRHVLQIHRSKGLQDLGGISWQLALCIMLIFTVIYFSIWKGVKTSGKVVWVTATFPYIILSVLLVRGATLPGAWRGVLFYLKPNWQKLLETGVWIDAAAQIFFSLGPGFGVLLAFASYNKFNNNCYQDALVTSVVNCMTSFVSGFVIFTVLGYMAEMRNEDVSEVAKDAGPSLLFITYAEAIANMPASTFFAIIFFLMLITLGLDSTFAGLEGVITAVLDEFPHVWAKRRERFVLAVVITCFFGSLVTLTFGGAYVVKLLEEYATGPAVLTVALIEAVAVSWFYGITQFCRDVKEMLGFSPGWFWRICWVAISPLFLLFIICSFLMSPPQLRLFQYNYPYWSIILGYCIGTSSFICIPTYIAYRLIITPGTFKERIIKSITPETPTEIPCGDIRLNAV

hVMAT2 [5] = biological target: T5, hVMAT2 (Homo sapiens, UniProt Q05940); test: Inhibition of [3H]5-HT uptake, HEK-hVMAT2 membrane preparation; type: biochemical; details: read-out: Inhibition of [3H]5-HT uptake IC50 ± sem, hVMAT2; 40 nM [3H]5-HT, 2 mM MgATP
T5 sequence (Q05940 whole entry): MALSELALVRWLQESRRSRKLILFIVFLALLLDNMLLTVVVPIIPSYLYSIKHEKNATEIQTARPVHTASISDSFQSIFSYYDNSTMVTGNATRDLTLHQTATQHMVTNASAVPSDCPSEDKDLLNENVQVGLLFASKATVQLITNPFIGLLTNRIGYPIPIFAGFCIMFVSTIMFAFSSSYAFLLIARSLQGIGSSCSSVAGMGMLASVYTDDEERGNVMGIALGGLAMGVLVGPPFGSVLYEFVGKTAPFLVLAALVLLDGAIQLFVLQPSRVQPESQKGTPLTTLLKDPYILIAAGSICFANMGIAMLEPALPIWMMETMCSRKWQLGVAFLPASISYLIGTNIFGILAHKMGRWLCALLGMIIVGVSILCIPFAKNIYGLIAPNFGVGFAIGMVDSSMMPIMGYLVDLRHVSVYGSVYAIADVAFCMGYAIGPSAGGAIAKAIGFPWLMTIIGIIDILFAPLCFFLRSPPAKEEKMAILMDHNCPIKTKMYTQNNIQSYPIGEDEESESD

hDAT [6] = biological target: T2, hDAT; test: Inhibition of [3H]DA uptake, intact HEK-hDAT cells; type: cell-based
[7] = overdose with a bath salt product containing 4-FMC and MDPV; ref [44]; cited from earlier work
h5-HT2C receptor [8] = biological target: T6, h5-HT2C receptor (Homo sapiens, UniProt P28335); test: biochemical; type: binding; details: read-out: Inhibition of radioligand binding Ki ± sem, h5-HT2C [125I]DOI
T6 sequence (P28335 33-458): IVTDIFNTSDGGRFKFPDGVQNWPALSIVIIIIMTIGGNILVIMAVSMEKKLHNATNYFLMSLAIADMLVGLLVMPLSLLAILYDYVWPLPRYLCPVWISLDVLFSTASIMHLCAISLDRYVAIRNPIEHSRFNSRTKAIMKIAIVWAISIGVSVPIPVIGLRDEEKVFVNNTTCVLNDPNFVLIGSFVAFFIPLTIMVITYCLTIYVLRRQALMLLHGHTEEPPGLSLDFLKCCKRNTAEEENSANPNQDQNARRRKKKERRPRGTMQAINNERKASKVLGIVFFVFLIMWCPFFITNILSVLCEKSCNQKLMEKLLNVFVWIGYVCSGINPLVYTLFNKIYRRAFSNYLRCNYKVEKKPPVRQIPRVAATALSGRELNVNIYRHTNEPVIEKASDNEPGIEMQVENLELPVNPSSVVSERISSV

hNET [9] = biological target: T3, hNET; test: Superfusion release of preloaded [3H]NE from HEK-hNET cells; type: cell-based
hSERT [10] = biological target: T4, hSERT; test: Inhibition of [3H]5-HT uptake, intact HEK-hSERT cells; type: cell-based; details: read-out: Inhibition of [3H]neurotransmitter uptake IC50 ± sem, hSERT [3H]5-HT; 20 nM [3H]5-HT, intact cells
hVMAT2 [11] = biological target: T5, hVMAT2; test: Superfusion release of preloaded [3H]NE from HEK-hVMAT2 cells; type: cell-based; details: read-out: Drug-induced release of [3H]NE EC50 ± sem, hVMAT2; superfusion
h5-HT2A receptor [12] = biological target: T7, h5-HT2A receptor (Homo sapiens, UniProt P28223); test: [125I]DOI binding, HEK-h5-HT2A; details: read-out: Inhibition of radioligand binding Ki ± sem, h5-HT2A [125I]DOI
T7 sequence (P28223 whole entry): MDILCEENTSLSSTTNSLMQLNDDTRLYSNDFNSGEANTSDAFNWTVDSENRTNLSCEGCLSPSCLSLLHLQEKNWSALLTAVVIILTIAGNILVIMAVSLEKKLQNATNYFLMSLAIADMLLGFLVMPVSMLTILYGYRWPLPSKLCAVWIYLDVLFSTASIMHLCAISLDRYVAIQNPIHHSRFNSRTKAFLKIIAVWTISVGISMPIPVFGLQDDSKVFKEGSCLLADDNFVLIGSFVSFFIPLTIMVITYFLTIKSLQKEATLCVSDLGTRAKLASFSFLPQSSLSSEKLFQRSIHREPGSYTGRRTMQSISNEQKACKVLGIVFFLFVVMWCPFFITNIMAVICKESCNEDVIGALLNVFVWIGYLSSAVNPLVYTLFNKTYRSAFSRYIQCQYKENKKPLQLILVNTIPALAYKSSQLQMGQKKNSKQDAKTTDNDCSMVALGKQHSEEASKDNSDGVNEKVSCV

hNET [13] = biological target: T3, hNET; test: cell-based; type: cell-based
h5-HT2A receptor [14] = biological target: T7, h5-HT2A receptor; test: Inhibition of 5-HT-stimulated IP-1 formation; type: cell-based; details: 100 nM 5-HT
hSigma1 receptor = hSigma1 receptor (Homo sapiens, UniProt Q99720); test: [3H]; type: binding; details: read-out: Inhibition of [3H]pentazocine binding Ki ± sem, hSigma1
hSigma1 receptor, sequence (Q99720 whole entry): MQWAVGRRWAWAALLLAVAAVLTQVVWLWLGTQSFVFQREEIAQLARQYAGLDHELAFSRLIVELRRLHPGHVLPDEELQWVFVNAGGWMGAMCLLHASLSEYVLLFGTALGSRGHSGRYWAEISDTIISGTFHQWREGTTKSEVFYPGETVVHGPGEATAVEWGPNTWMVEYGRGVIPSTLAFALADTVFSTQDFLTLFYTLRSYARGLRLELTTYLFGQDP

h5-HT1A receptor [15] = biological target: T1, h5-HT1A receptor; test: Stimulation of [35S]GTPγS binding, HEK-h5-HT1A membranes; type: biochemical
h5-HT2C receptor [16] = biological target: T6, h5-HT2C receptor; test: Inhibition of 5-HT-stimulated IP-1 formation; type: cell-based; details: 100 nM 5-HT; normalized to maximal inhibition by SB242084 (1 µM)
hDAT [17] = biological target: T2, hDAT; test: Superfusion release of preloaded [3H]DA from HEK-hDAT cells; type: cell-based

CNC(C)C(=O)c1ccc(F)cc1 (stereo not drawn) [4-FMC, 4-fluoromethcathinone]
Ki (h5-HT1A receptor [1]): 71.6 ± 3.4 µM
Ki (hDAT [2]): 10.4 ± 3.3 µM
Ki (hNET [3]): 35 ± 10 µM
% maximum release ± sem, hSERT [3H]5-HT (hSERT [4]): 39.3 ± 9.7%
time of peak [3H]5-HT release after addition of drug (hSERT [4]): about 6 min
EC50 (hSERT [4]; read-out: Drug-induced release of [3H]neurotransmitter EC50 ± sem, hSERT [3H]5-HT, superfusion, AUC): 39 ± 14 µM
IC50 (hVMAT2 [5]): 178 ± 36 µM
ratio of binding Ki to uptake IC50, hDAT (hDAT [6]; [125I]RTI-55 Ki / [3H]DA uptake IC50): 38
IC50 (hDAT [6]; read-out: Inhibition of [3H]neurotransmitter uptake IC50 ± sem, hDAT [3H]DA, 20 nM [3H]DA, intact cells): 0.273 ± 0.074 µM
serum concentration in overdose [7]: 346 ng/mL
serum concentration in overdose (molar) [7]: ~ 1.6 uM
Ki (h5-HT2C receptor [8]): 12.6 ± 2.4 µM
time of peak [3H]NE release after addition of drug (hNET [9]): 8 to 16 min
EC50 (hNET [9]; read-out: Drug-induced release of [3H]neurotransmitter EC50 ± sem, hNET [3H]NE, superfusion, AUC): 1.53 ± 0.43 µM
% maximum release ± sem, hNET [3H]NE (hNET [9]; relative to maximal AUC induced by METH (0.3 or 1 µM)): 194 ± 58%
IC50 (hSERT [10]): > 10 µM
EC50 (hVMAT2 [11]): > 100 µM
Ki (h5-HT2A receptor [12]): 10 ± 1 µM
ratio of binding Ki to uptake IC50, hNET (hNET [13]; [125I]RTI-55 Ki / [3H]NE uptake IC50): 276
IC50 (hNET [13]; read-out: Inhibition of [3H]neurotransmitter uptake IC50 ± sem, hNET [3H]NE, 20 nM [3H]NE, intact cells): 0.127 ± 0.02 µM
h5-HT2A Inhibition of 5-HT-stimulated IP-1 formation % maximum inhibition ± sem (h5-HT2A receptor [14]; normalized to maximal inhibition by ketanserin (10 µM)): 97.0 ± 1.6%
IC50 (h5-HT2A receptor [14]; read-out: h5-HT2A Inhibition of 5-HT-stimulated IP-1 formation IC50 ± sem): 23.6 ± 3 µM
Ki (hSigma1 receptor): 24.2 ± 9 µM
h5-HT1A Stimulation of [35S]GTPγS binding % maximum stimulation ± sem (h5-HT1A receptor [15]; normalized to the maximal stimulation by 5-HT): 70.7 ± 8.3%
EC50 (h5-HT1A receptor [15]; read-out: h5-HT1A Stimulation of [35S]GTPγS binding EC50 ± sem): 156 ± 3.4 µM
h5-HT2C Inhibition of 5-HT-stimulated IP-1 formation % maximum inhibition ± sem (h5-HT2C receptor [16]): 15 ± 20%
% maximum release ± sem, hDAT [3H]DA (hDAT [17]): 98 ± 14%
time of peak/maximal [3H]DA release after addition of drug (hDAT [17]; 4-FMC 10 µM to 300 µM, mephedrone 30 µM, methylone 100 µM): about 6 min
fold less potent than METH to induce [3H]DA release (hDAT [17]; EC50 compared to METH): 45 fold
EC50 (hDAT [17]; read-out: Drug-induced release of [3H]neurotransmitter EC50 ± sem, hDAT [3H]DA, superfusion, AUC): 17.8 ± 7.6 µM
